In USRE44613E1, “N-substituted glycine derivatives: hydroxylase inhibitors” (GlaxoSmithKline LLC, priority 2007, dated 2013):

System: Epo protein produced by Hep3B cell line
Assay: Epo protein produced by Hep3B cell line using ELISA method
Type: cell-based
Conditions: Homo sapiens; Hep3B cells, 48 hours incubation, DMEM without serum; maximum concentration tested 100 micromolar; range stated jointly for ELISA and AlphaLISA
Method: Measure Epo Protein Produced by Hep3B Cell Line Using ELISA Method.
Hep3B cells obtained from the American Type Culture Collection (ATCC) are seeded at 2×10^4 cells/well in Dulbecco's Modified Eagle Medium (DMEM)+10% FBS in 96-well plates. Cells are incubated at 37 deg C./5% CO2/90% humidity (standard cell culture incubation conditions). After overnight adherence, medium is removed and replaced with DMEM without serum containing test compound or DMSO negative control. Following 48 hours incubation, cell culture medium is collected and assayed by ELISA to quantitate Epo protein.

- EC50: > 100 µM
Structure (SMILES): CC(C)(C)c1ccc(Cn2nc(-c3ccc(C(C)(C)C)cc3)c(O)c(C(=O)NCC(=O)O)c2=O)cc1 [Example 26, N-[(6-[4-(1,1-Dimethylethyl)phenyl]-2-{[4-(1,1-dimethylethyl)phenyl]methyl}-5-hydroxy-3-oxo-2,3-dihydro-4-pyridazinyl)carbonyl]glycine]
